Reference: US10857150B2, “Use of sanglifehrin macrocyclic analogues as anticancer compounds” (NEUROVIVE PHARMACEUTICAL AB, priority 2016, dated 2020)
pEC50, pIC50: −log10 of the molar value.

Columns and labels:
[1] = tested on: cancer cell lines Huh7, HepG2 and OEM; conditions: three cancer cell lines Huh7, HepG2 and OEM; WO2011/098805; cited from earlier work
[2] = tested on: LIXC-002; assay: 7-day proliferation assay, Calcein AM staining; assay type: cell-based, human; conditions: Example 5, one experiment
Description: (§1) The cells were seeded in a 96-well plate, test compound or DMSO was added and the plate was incubated for additional four days or 7 days (Calcein AM assay). Viable cell counts were determined after detachment by treatment with trypsin either by trypan blue exclusion, flow cytometry, indirectly by measuring ATP content by addition of an ATP measuring reagent (CellTiter Glo), or Calcein AM, prepared according to the instruction of the manufacturer directly.
(§2) XLfit software ((Fit model: Dose response one site/^F(x)[fit=(A+((B−A)/(1+((C/x)^D))))]) for curve fitting and IC50 calculation) was used for curve fitting and IC50 calculation.
(§3) In vitro evaluation of a sanglifehrin macrocyclic analogue (1) for anticancer activity against human hepatocyte cancer cell lines in comparison with NV556 (10) a 7-day proliferation assay. The cell numbers were determined by Calcein AM staining as described in the methods section. Data are from one experiment with each cell line testing duplicate samples of 9 concentrations of each compound. Both compounds were included in each experiment.

[3] = tested on: LIXC-086; assay: 7-day proliferation assay, Calcein AM staining; assay type: cell-based, human
Description: as §1, §2, §3
as §3, with “the cyclophilin inhibitor alisporivir and the kinase inhibitor sorafenib in” for “NV556 (10)”, “one single” for “one”, “or means of two independent experiments” for “with each cell line”, “All three” for “Both”

[4] = tested on: Hep3B2.1-7-Luc; assay: 7-day proliferation assay, Calcein AM staining; assay type: cell-based, human
Description: as §1, §2, §3
as §3, with “the cyclophilin inhibitor alisporivir and the kinase inhibitor sorafenib in” for “NV556 (10)”, “one single” for “one”, “or means of two independent experiments” for “with each cell line”, “All three” for “Both”

[5] = tested on: LIXC-006; assay: 7-day proliferation assay, Calcein AM staining; assay type: cell-based, human
Description: as §1, §2, §3
as §3, with “the cyclophilin inhibitor alisporivir and the kinase inhibitor sorafenib in” for “NV556 (10)”, “one single” for “one”, “or means of two independent experiments” for “with each cell line”, “All three” for “Both”

[6] = tested on: LIXC-066; assay: 7-day proliferation assay, Calcein AM staining; assay type: cell-based, human
Description: as §1, §2, §3
as §3, with “the cyclophilin inhibitor alisporivir and the kinase inhibitor sorafenib in” for “NV556 (10)”, “one single” for “one”, “or means of two independent experiments” for “with each cell line”, “All three” for “Both”

[7] = tested on: HCT 116; assay: monolayer proliferation assay, human tumour cell line panel; assay type: cell-based; conditions: means of two experiments, 3 nM-25 μM
Description: as §1
(§4) Percentage inhibition in the ATP test was calculated by the formula described below: Growth inhibition %: 100−100×(Experimental−Blank)/(DMSO−Blank)
as §2
(§5) In vitro evaluation of compounds for anticancer activity in a panel of human tumour cell lines in a monolayer proliferation assay were carried out at Shanghai Chempartner.
(§6) In vitro evaluation of a sanglifehrin macrocyclic analogue (NV556) for anticancer activity in a panel of 11 human tumour cell lines in a monolayer proliferation assay was carried out as described in the general methods above. Data are means from two independent experiments testing 10 concentrations (3 nM-25 μM) in duplicate.

[8] = tested on: HepG2; assay: as above; assay type: cell-based; conditions: means of two experiments, 3 nM-25 μM
Description: as §1, §4, §2, §5, §6

[9] = tested on: PANC-1; assay: as above; assay type: cell-based; conditions: means of two experiments, 3 nM-25 μM
Description: as §1, §4, §2, §5, §6

[10] = tested on: A549; assay: as above; assay type: cell-based; conditions: means of two experiments, 3 nM-25 μM
Description: as §1, §4, §2, §5, §6

[11] = tested on: PC-3; assay: as above; assay type: cell-based; conditions: means of two experiments, 3 nM-25 μM
Description: as §1, §4, §2, §5, §6

[12] = tested on: A2780; assay: as above; assay type: cell-based; conditions: means of two experiments, 3 nM-25 μM
Description: as §1, §4, §2, §5, §6

[13] = tested on: MDA-MB-231; assay: as above; assay type: cell-based; conditions: means of two experiments, 3 nM-25 μM
Description: as §1, §4, §2, §5, §6

[14] = tested on: A375; assay: as above; assay type: cell-based; conditions: means of two experiments, 10 concentrations 3 nM-25 μM
Description: as §1, §4, §2, §5, §6

[15] = tested on: U251; assay: as above; assay type: cell-based; conditions: means of two experiments, 3 nM-25 μM
Description: as §1, §4, §2, §5, §6

[16] = tested on: SK-Hep-1; assay: as above; assay type: cell-based; conditions: means of two experiments, 3 nM-25 μM
Description: as §1, §4, §2, §5, §6

[17] = tested on: RPMI 8226; assay: as above; assay type: cell-based; conditions: means of two experiments, 3 nM-25 μM
Description: as §1, §4, §2, §5, §6

[18] = tested on: Huh-7; assay: as above; assay type: cell-based; conditions: means of two experiments, 3 nM-25 μM
Description: as §1, §4, §2, §5, §6

[19] = tested on: HT-29; assay: as above; assay type: cell-based; conditions: means of two experiments, 3 nM-25 μM
Description: as §1, §4, §2, §5, §6

[20] = tested on: SK-Hep-1 tumour cell line; assay: combined anticancer activity, monolayer proliferation assay; assay type: cell-based, human; conditions: over certain concentration ranges
Description: as §1
In vitro evaluation of the combined anticancer activity of a sanglifehrin macrocyclic analogue with the anticancer agents sorafenib or doxorubicin against the SK-Hep-1 tumour cell line in a monolayer proliferation assay was carried out as described in the general methods above.

[21] = tested on: HepG2; assay: combination with sorafenib, 7-day proliferation assay (Calcein AM), isobologram; assay type: cell-based, human; conditions: combination with sorafenib at different doses
Description: as §1
To test for potential synergistic activity with sorafenib, compound 1 (A) was added at a range of concentrations along with a range of concentrations of sorafenib (B) against a liver cancer cell line, HepG2 in a 7-day proliferation assay (Calcein AM assay, described in the methods section). Data are from one single experiment representative of two independent experiments testing duplicate samples. The data was plotted in a normalized isobologram (Chou and Martin. CompuSyn for Drug Combinations: PC Software and User's Guide: A Computer Program for Quantitation of Synergism and Antagonism in Drug Combinations, and the Determination of IC50 and ED50 and LD50 Values, ComboSyn Inc, Paramus, (NJ), 2005) and is shown in FIG. 7. Values at the lower left below the hypotenuse indicate synergism.

[22] = tested on: HepG2; assay: 7-day proliferation assay, Calcein AM staining; assay type: cell-based; conditions: Homo sapiens, 168 h, Example 6, n 2
Description: as §1, §2
as §3, with “the cyclophilin inhibitor alisporivir and the kinase inhibitor sorafenib in” for “NV556 (10)”, “one single” for “one”, “or means of two independent experiments” for “with each cell line”, “All three” for “Both”

[23] = tested on: LIXC-003; assay: 7-day proliferation assay, Calcein AM staining; assay type: cell-based; conditions: Homo sapiens, 168 h, Example 6, n 2
Description: as §1, §2
as §3, with “the cyclophilin inhibitor alisporivir and the kinase inhibitor sorafenib in” for “NV556 (10)”, “one single” for “one”, “or means of two independent experiments” for “with each cell line”, “All three” for “Both”

[24] = tested on: LIXC-011; assay: 7-day proliferation assay, Calcein AM staining; assay type: cell-based; conditions: Homo sapiens, 168 h, Example 6, n 1
Description: as §1, §2
as §3, with “the cyclophilin inhibitor alisporivir and the kinase inhibitor sorafenib in” for “NV556 (10)”, “one single” for “one”, “or means of two independent experiments” for “with each cell line”, “All three” for “Both”

[25] = tested on: LIXC-004; assay: 7-day proliferation assay, Calcein AM staining; assay type: cell-based; conditions: Homo sapiens, 168 h, Example 6, n 2
Description: as §1, §2
as §3, with “the cyclophilin inhibitor alisporivir and the kinase inhibitor sorafenib in” for “NV556 (10)”, “one single” for “one”, “or means of two independent experiments” for “with each cell line”, “All three” for “Both”

[26] = tested on: LIXC-012; assay: 7-day proliferation assay, Calcein AM staining; assay type: cell-based; conditions: Homo sapiens, 168 h, Example 6, n 2
Description: as §1, §2
as §3, with “the cyclophilin inhibitor alisporivir and the kinase inhibitor sorafenib in” for “NV556 (10)”, “one single” for “one”, “or means of two independent experiments” for “with each cell line”, “All three” for “Both”

[27] = tested on: human hepatocyte cancer cell lines; assay: 7-day proliferation assay, comparison of potency over the cell lines; assay type: cell-based
Description: as §1, §3
as §3, with “the cyclophilin inhibitor alisporivir and the kinase inhibitor sorafenib in” for “NV556 (10)”, “one single” for “one”, “or means of two independent experiments” for “with each cell line”, “All three” for “Both”

[28] = molecular target: cyclophilin A (CyPA) (Homo sapiens, UniProt P62937); conditions: higher affinity; cited from earlier work
[29] = read-out: Concentration giving 50% of maximum effect
[30] = Homo sapiens, 168 h, Example 5, one experiment
[31] = Homo sapiens, 168 h, Example 6, n 1

Chain of cyclophilin A (CyPA) (P62937 whole entry, species assumed): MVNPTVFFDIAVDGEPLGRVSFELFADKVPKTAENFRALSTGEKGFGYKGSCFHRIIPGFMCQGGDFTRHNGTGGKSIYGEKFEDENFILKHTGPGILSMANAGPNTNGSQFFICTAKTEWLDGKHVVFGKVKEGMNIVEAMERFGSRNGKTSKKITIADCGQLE

In the case of `CC(=O)CCC1C(=O)NC(C(C)C)C(=O)NC(Cc2cccc(O)c2)C(=O)N2CCCC(N2)C(=O)OC(C(C)=CC=CC(=O)OC(C)(C)C)CC=CC=CC(O)C(C)C1O` (stereo not shown) [compound 9], the “effect on cancer cell lines” value [1] is given as “limited effect”.

`CC(=O)CCC1C(=O)NC(C(C)C)C(=O)NC(Cc2cc(O)cc(F)c2)C(=O)N2CCCC(N2)C(=O)OC(C(C)=CC=CC(=O)N2CCCCO2)CC=CC=CC(O)C(C)C1O` (stereo not shown) [NV556] showed a pIC50 [2] of 7.41, a pIC50 ([3]; Example 5, one experiment) of 5.02 and a pIC50 ([4]; Example 5, one experiment) of 7.27. For the same compound, the pIC50 ([5]; Example 5, one experiment) was 7.21, the pIC50 ([6]; Example 5, one experiment) was 6.61 and the “Maximum inhibition (%)” value [7] was 88.7%. The pEC50 [7, 29] was 7.00, the “Maximum inhibition (%)” value [8] was 80.6% and the pEC50 [8, 29] was 7.00. For the same compound, the “Maximum inhibition (%)” value [9] was 51.0%, the pEC50 [9, 29] was 5.89 and the “Maximum inhibition (%)” value [10] was 45.2%. For the same compound, the pEC50 [10, 29] was 7.00, the “Maximum inhibition (%)” value [11] was 45.3% and the pEC50 [11, 29] was 6.52. The “Maximum inhibition (%)” value [12] was 83.7%, the pEC50 [12, 29] was 7.00 and the “Maximum inhibition (%)” value [13] was 49.9%. For the same compound, the pEC50 [13, 29] was 6.30, the “Maximum inhibition (%)” value [14] was 87.6% and the pEC50 [14, 29] was 5.68. The “Maximum inhibition (%)” value [15] was 62.0%, the pEC50 [15, 29] was 4.77 and the “Maximum inhibition (%)” value [16] was 94.6%. For the same compound, the pEC50 [16, 29] was 7.00, the “Maximum inhibition (%)” value [17] was 87.1% and the pEC50 [17, 29] was 6.70. For the same compound, the “Maximum inhibition (%)” value [18] was 22.4%, the pEC50 [18, 29] was 7.52 and the “Maximum inhibition (%)” value [19] was 56.8%. For the same compound, the “reduction in cell numbers, combination versus single compounds” value ([20]; combination with doxorubicin) was “stronger reduction in cell numbers than either compound alone” and the “reduction in cell numbers, combination versus single compounds” value ([20]; combination with sorafenib) was “stronger reduction in cell numbers than either compound alone”.

In the case of `CC(=O)CC[C@H]1C(=O)N[C@@H](C(C)C)C(=O)N[C@@H](Cc2cc(O)cc(F)c2)C(=O)N2CCCC(N2)C(=O)O[C@H](/C(C)=C/C=C/C(=O)OC(C)(C)C)C/C=C/C=C/[C@H](O)[C@H](C)[C@H]1O` (stereo partly shown) [Compound 1], the pIC50 ([2]; Homo sapiens, 168 h) was over 8.52, the pIC50 [3, 30] was 6.04 and the pIC50 [3, 31] was 6.16. The pIC50 [4, 30] was 7.96, the pIC50 [4, 31] was 8.05 and the pIC50 [5, 30] was 8.05. It also gave a pIC50 ([5]; Homo sapiens, 168 h, Example 6, n 2) of 8.22, a pIC50 [6, 30] of 7.03 and a pIC50 [6, 31] of 6.77. For the same compound, the “growth inhibitory effect of simultaneous treatment” value [21] was “synergistic growth inhibitory effect”, the pIC50 [22] was 8.15 and the pIC50 [23] was 8.10. It also gave a pIC50 [24] of 7.92, a pIC50 [25] of 8.40 and a pIC50 [26] of 7.19. For the same compound, the “potency relative to NV556 (10)” value ([27]; Example 5, all cases (5 cell lines)) was 3-10 fold, the “potency relative to alisporivir” value ([27]; Example 6, all cases (9 cell lines)) was 3-1000 fold and the “potency relative to sorafenib” value ([27]; Example 6, in 8/9 cases) was 3-600 fold.

For `CC[C@H]1C[C@H](C)[C@@]2(NC1=O)O[C@@H](C[C@H](O)[C@@H](C)CC/C=C/C=C(\C)[C@@H]1C/C=C/C=C/[C@H](O)[C@H](C)[C@@H](O)[C@@H](CCC(C)=O)C(=O)N[C@@H](C(C)C)C(=O)N[C@@H](Cc3cccc(O)c3)C(=O)N3CCC[C@H](N3)C(=O)O1)[C@H](C)[C@H](O)[C@@H]2C` [SfA, Sanglifehrin A], the “affinity for CyPA compared to CsA” value [28] is listed as “approximately 20 fold”.
